Assay results published in patent US11944626B2, “Small molecule inhibitors of ALDH and uses thereof” (The Regents of the University of Michigan, priority 2016, dated 2024).

Tests used:
OVSAHO = OVSAHO Cell Viability; format: cell-based; details: for OVSAHO Cell Viability (50 μM) % CD133 + % ctrl / OVSAHO Cell Viability (30 μM) % CD133 + % ctrl: CD133+ cells; for OVSAHO Cell Viability (50 μM) Total Cell % ctrl / OVSAHO Cell Viability (30 μM) Total Cell % ctrl: total cells
ALDH2 = molecular target: T1, ALDH2 (Homo sapiens, UniProt P05091); experiment: Inhibition of ALDH isoenzymes (NAD(P)H formation at 340 nm, purified recombinant enzyme); format: biochemical; set-up: key to ALDH2 inhibition at 20 μM (N.I.): N.I.: No inhibition at 20 μM; details: compound at 20 μM; for remaining activity at 20 µM: read-out: ALDH2 % Control at 20 μM;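 for all read-outs here: run at 25 °C, started by adding substrate after 2 min preincubation, with 100-200 nM ALDH2, 200 µM NAD+, 100 µM propionaldehyde, 1% DMSO in BES buffer pH 7.5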
T1 sequence (P05091 18-517): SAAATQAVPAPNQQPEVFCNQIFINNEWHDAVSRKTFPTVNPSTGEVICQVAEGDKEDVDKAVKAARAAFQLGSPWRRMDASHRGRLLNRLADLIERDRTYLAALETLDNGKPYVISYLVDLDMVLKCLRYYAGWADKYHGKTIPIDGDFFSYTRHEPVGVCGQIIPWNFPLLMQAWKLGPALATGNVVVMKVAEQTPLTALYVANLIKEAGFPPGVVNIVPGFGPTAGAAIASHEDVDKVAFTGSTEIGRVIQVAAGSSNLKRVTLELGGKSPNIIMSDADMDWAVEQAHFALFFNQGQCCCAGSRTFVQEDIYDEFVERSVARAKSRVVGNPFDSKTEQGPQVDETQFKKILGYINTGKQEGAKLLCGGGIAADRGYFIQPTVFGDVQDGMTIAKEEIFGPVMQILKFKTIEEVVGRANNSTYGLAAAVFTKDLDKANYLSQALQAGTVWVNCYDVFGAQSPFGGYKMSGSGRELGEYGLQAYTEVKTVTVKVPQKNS

ALDH1A2 = molecular target: T2, ALDH1A2 (Homo sapiens, UniProt O94788); experiment: as above; format: biochemical; details: for remaining activity at 20 µM: compound at 20 μM, read-out: ALDH1A2 % Control at 20 μM
T2 sequence (O94788 1-518): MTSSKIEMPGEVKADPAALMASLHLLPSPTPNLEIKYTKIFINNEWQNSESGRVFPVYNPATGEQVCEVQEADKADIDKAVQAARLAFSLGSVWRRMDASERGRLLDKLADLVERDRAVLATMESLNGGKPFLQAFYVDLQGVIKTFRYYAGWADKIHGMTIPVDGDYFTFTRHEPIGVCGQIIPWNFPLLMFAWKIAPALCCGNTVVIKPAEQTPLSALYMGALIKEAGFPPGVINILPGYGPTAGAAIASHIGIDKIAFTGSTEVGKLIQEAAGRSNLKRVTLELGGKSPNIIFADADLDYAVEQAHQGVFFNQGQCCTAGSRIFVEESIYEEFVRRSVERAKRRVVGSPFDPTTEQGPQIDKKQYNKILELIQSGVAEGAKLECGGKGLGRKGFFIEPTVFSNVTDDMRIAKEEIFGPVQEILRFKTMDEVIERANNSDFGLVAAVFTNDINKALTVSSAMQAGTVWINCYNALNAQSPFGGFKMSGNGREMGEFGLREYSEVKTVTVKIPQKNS

ALDH1A1 = molecular target: T3, ALDH1A1 (Homo sapiens, UniProt P00352); experiment: as above; format: biochemical; details: for remaining activity at 20 µM: compound at 20 μM, read-out: ALDH1A1 % Control at 20 μM
T3 sequence (P00352 1-501): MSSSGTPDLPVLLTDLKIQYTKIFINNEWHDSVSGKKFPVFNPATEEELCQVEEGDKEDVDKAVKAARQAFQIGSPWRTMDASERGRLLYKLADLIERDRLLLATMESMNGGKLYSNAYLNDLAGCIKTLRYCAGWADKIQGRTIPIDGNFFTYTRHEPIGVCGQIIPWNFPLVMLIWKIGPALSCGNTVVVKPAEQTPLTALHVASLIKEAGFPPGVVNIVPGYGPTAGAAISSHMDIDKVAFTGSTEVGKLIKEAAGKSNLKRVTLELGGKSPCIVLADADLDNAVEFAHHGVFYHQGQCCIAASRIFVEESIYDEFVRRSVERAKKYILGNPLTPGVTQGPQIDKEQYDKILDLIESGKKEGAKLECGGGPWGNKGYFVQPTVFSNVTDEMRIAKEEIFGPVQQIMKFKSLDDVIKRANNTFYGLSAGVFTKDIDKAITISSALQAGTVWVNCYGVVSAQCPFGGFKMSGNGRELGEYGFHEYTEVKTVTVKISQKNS

[1] = 100-200 nM enzyme, 200 μM NAD+, 100 μM propionaldehyde, pH 7.5, 25° C.

SMILES | OVSAHO Cell Viability (50 μM) % CD133 + % ctrl (OVSAHO) [% ctrl] | OVSAHO Cell Viability (50 μM) Total Cell % ctrl (OVSAHO) [% ctrl] | remaining activity at 20 µM (ALDH2) [%] | other results
Cc1ccccc1-n1c(SCc2cccc(F)c2)nc2c(cnn2CC2COC2)c1=O [Example 11, 6-((3-fluorobenzyl)thio)-1-(oxetan-3-ylmethyl)-5-(o-tolyl)-1H-pyrazolo[3,4-d]pyrimidin-4(5H)-one] | 69 | 30 |  | 
Cn1ncc2c(=O)n(-c3cccnc3)c(SCc3cccc(F)c3)nc21 [Example 31, 6-((3-fluorobenzyl)thio)-1-methyl-5-(pyridin-3-yl)-1H-pyrazolo[3,4-d]pyrimidin-4(5H)-one] | 81 | 79 |  | 
Cn1ncc2c(=O)n(-c3ccc(Cl)cc3)c(SCc3cccc(F)c3)nc21 [Example 43, 5-(4-chlorophenyl)-6-((3-fluorobenzyl)thio)-1-methyl-1H-pyrazolo[3,4-d]pyrimidin-4(5H)-one] |  |  | 153 | 
Cc1ccccc1-n1c(SCc2cccc(F)c2)nc2c(cnn2C2COC2)c1=O [Example 9, 6-((3-fluorobenzyl)thio)-1-(oxetan-3-yl)-5-(o-tolyl)-1H-pyrazolo[3,4-d]pyrimidin-4(5H)-one] | 50 | 22 |  | remaining activity at 20 µM (ALDH1A2): 31%
Cn1ncc2c(=O)n(-c3ccccc3)c(CNc3cccc(F)c3)nc21 [Example 49, 6-(((3-fluorophenyl)amino)methyl)-1-methyl-5-phenyl-1H-pyrazolo[3,4-d]pyrimidin-4(5H)-one] |  |  | 89 | 
Cn1ncc2c(=O)n(-c3ccncc3)c(SCc3cccc(F)c3)nc21 [Example 32, 6-((3-fluorobenzyl)thio)-1-methyl-5-(pyridin-4-yl)-1H-pyrazolo[3,4-d]pyrimidin-4(5H)-one] | 75 | 66 |  | IC50 (ALDH1A1; [1]): 5.2 µM
CC(Sc1nc2c(cnn2C)c(=O)n1-c1ccccc1)c1ccccc1 (racemic) [Example 61, 1-methyl-5-phenyl-6-((1-phenylethyl)thio)-1H-pyrazolo[3,4-d]pyrimidin-4(5H)-one] |  |  | 107 | OVSAHO Cell Viability (30 μM) % CD133 + % ctrl (OVSAHO): 88% ctrl; OVSAHO Cell Viability (30 μM) Total Cell % ctrl (OVSAHO): 7% ctrl
C[C@@H](Sc1nc2c(cnn2C)c(=O)n1-c1ccccc1)c1ccccc1 [Example 65, (R)-1-methyl-5-phenyl-6-((1-phenylethyl)thio)-1H-pyrazolo[3,4-d]pyrimidin-4(5H)-one] |  |  | 100 | OVSAHO Cell Viability (30 μM) % CD133 + % ctrl (OVSAHO): 117% ctrl; OVSAHO Cell Viability (30 μM) Total Cell % ctrl (OVSAHO): 75% ctrl
CC(Oc1nc2c(cnn2C)c(=O)n1-c1ccccc1)c1ccccc1 (stereo not shown) [Example 66, 1-methyl-5-phenyl-6-(1-phenylethoxy)-1H-pyrazolo[3,4-d]pyrimidin-4(5H)-one] |  |  | 92 | OVSAHO Cell Viability (30 μM) Total Cell % ctrl (OVSAHO): 76% ctrl
CC(Sc1nc2nn(CC3COC3)cc2c(=O)n1-c1ccccc1)c1ccccc1 (stereo not shown) [Example 64, 2-(oxetan-3-ylmethyl)-5-phenyl-6-((1-phenylethyl)thio)-2H-pyrazolo[3,4-d]pyrimidin-4(5H)-one] |  |  | 100 | 
CC(Sc1nc2c(cnn2C)c(=O)n1-c1ccccc1)c1cccc(O)c1 (stereo not shown) [Example 78, 6-((1-(3-hydroxyphenyl)ethyl)thio)-1-methyl-5-phenyl-1H-pyrazolo[3,4-d]pyrimidin-4(5H)-one] |  |  | 91 | remaining activity at 20 µM (ALDH1A1): 4%; remaining activity at 20 µM (ALDH1A2): 0%
O=c1c2cn[nH]c2nc(SCc2cccc(F)c2)n1-c1ccccc1 [Example 2, 6-((3-fluorobenzyl)thio)-5-phenyl-1H-pyrazolo[3,4-d]pyrimidin-4(5H)-one] | 58 | 39 |  | 
Cn1ncc2c(=O)n(-c3ccccc3)c(/C=C/c3cccc(F)c3)nc21 [Example 47, (E)-6-(3-fluorostyryl)-1-methyl-5-phenyl-1H-pyrazolo[3,4-d]pyrimidin-4(5H)-one] |  |  | 110 | remaining activity at 20 µM (ALDH1A1): 28%; remaining activity at 20 µM (ALDH1A2): 15%
Cn1cc2c(=O)n(-c3ccccc3)c(SCc3cccc(F)c3)nc2n1 [Example 13, 6-((3-fluorobenzyl)thio)-2-methyl-5-phenyl-2H-pyrazolo[3,4-d]pyrimidin-4(5H)-one] | 83 | 69 |  | 
Cc1ccccc1-n1c(SCc2cccc(F)c2)nc2c(cnn2C)c1=O [Example 3, 6-((3-fluorobenzyl)thio)-1-methyl-5-(o-tolyl)-1H-pyrazolo[3,4-d]pyrimidin-4(5H)-one] |  |  |  | IC50 (ALDH1A2; [1]): > 20 µM
Cn1ncc2c(=O)n(-c3ccccc3)c(CSc3cccc(F)c3)nc21 [Example 51, 6-(((3-fluorophenyl)thio)methyl)-1-methyl-5-phenyl-1H-pyrazolo[3,4-d]pyrimidin-4(5H)-one] |  |  | 92 | remaining activity at 20 µM (ALDH1A1): 25%
Cn1ncc2c(=O)n(-c3cccc(Cl)c3)c(SCc3cccc(F)c3)nc21 [Example 42, 5-(3-chlorophenyl)-6-((3-fluorobenzyl)thio)-1-methyl-1H-pyrazolo[3,4-d]pyrimidin-4(5H)-one] |  |  | 137 | 
CN(Cc1nc2c(cnn2C)c(=O)n1-c1ccccc1)c1cccc(F)c1 [Example 62, 6-(((3-fluorophenyl)(methyl)amino)methyl)-1-methyl-5-phenyl-1H-pyrazolo[3,4-d]pyrimidin-4(5H)-one] |  |  | 103 | OVSAHO Cell Viability (30 μM) % CD133 + % ctrl (OVSAHO): 96% ctrl; OVSAHO Cell Viability (30 μM) Total Cell % ctrl (OVSAHO): 65% ctrl
Cn1ncc2c(=O)n(-c3ccccc3)c(SCc3cccc(F)c3)nc21 [Example 27, 6-((3-fluorobenzyl)thio)-1-methyl-5-phenyl-1H-pyrazolo[3,4-d]pyrimidin-4(5H)-one] |  |  |  | ALDH2 inhibition at 20 μM (N.I.) (ALDH2): N.I.
Cn1ncc2c(=O)n(-c3ccccn3)c(SCc3cccc(F)c3)nc21 [Example 34, 6-((3-fluorobenzyl)thio)-1-methyl-5-(pyridin-2-yl)-1H-pyrazolo[3,4-d]pyrimidin-4(5H)-one] | 81 | 77 |  | 
Cn1ncc2c(=O)n(-c3ccccc3)c(OCc3cccc(F)c3)nc21 [Example 60, 6-((3-fluorobenzyl)oxy)-1-methyl-5-phenyl-1H-pyrazolo[3,4-d]pyrimidin-4(5H)-one] |  |  | 91 | OVSAHO Cell Viability (30 μM) % CD133 + % ctrl (OVSAHO): 76% ctrl; OVSAHO Cell Viability (30 μM) Total Cell % ctrl (OVSAHO): 35% ctrl
Cn1c(SCc2cccc(F)c2)nc2c(cnn2C)c1=O [Example 37, 6-((3-fluorobenzyl)thio)-1,5-dimethyl-1H-pyrazolo[3,4-d]pyrimidin-4(5H)-one] | 88 | 7 |  | 
Cn1ncc2c(=O)n(Cc3ccccc3)c(SCc3cccc(F)c3)nc21 [Example 36, 5-benzyl-6-((3-fluorobenzyl)thio)-1-methyl-1H-pyrazolo[3,4-d]pyrimidin-4(5H)-one] | 5 | 12 |  | ALDH2 inhibition at 20 μM (N.I.) (ALDH2): N.I.
